Patent publication US9682974B2, “Heteroaryl substituted pyrazoles” (BAYER PHARMA AKTIENGESELLSCHAFT, priority 2013, dated 2017)

Key:
[1] = target: T1, catalytic domain of human Bub1 (amino acids 704-1085) (Homo sapiens, UniProt O43683); test: Bub1 kinase assay (TR-FRET); assay type: biochemical; details: 10 μM ATP, 1 μM peptide substrate, read-out: Biological Assay 1: Bub1 kinase assay median IC50
T1 construct: catalytic domain of human Bub1 (amino acids 704-1085); His6 (N); made in house; host or cells: Hi5 insect cells
T1 sequence (O43683 704-1085): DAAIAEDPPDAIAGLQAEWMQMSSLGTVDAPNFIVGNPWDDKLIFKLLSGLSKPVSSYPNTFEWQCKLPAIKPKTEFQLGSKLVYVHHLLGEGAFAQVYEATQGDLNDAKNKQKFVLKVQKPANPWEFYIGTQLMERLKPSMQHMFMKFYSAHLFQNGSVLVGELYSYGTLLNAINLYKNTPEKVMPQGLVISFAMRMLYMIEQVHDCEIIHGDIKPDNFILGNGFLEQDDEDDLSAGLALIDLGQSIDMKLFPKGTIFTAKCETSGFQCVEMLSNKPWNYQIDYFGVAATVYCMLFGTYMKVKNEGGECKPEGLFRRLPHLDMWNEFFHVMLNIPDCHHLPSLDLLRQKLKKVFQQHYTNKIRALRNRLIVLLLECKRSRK
Description: Bub1-inhibitory activities of compounds described in the present invention were quantified using a time-resolved fluorescence energy transfer (TR-FRET) kinase assay which measures phosphorylation of the synthetic peptide Biotin-Ahx-VLLPKKSFAEPG (SEQ ID No. 1) (C-terminus in amide form), purchased from e.g. Biosyntan (Berlin, Germany) by the (recombinant) catalytic domain of human Bub1 (amino acids 704-1085), expressed in Hi5 insect cells with an N-terminal His6-tag and purified by affinity- (Ni-NTA) and size exclusion chromatography.
In a typical assay 11 different concentrations of each compound (0.1 nM, 0.33 nM, 1.1 nM, 3.8 nM, 13 nM, 44 nM, 0.15 μM, 0.51 μM, 1.7 μM, 5.9 μM and 20 μM) were tested in duplicate within the same microtiter plate. To this end, 100-fold concentrated compound solutions (in DMSO) were previously prepared by serial dilution (1:3.4) of 2 mM stocks in a clear low volume 384-well source microtiter plate (Greiner Bio-One, Frickenhausen, Germany), from which 50 nL of compounds were transferred into a black low volume test microtiter plate from the same supplier. Subsequently, 2 μL of Bub1 (the final concentration of Bub1 was adjusted depending on the activity of the enzyme lot in order to be within the linear dynamic range of the assay: typically ˜200 ng/mL were used) in aqueous assay buffer [50 mM Tris/HCl pH 7.5, 10 mM magnesium chloride (MgCl2), 200 mM potassium chloride (KCl), 1.0 mM dithiothreitol (DTT), 0.1 mM sodium ortho-vanadate, 1% (v/v) glycerol, 0.01% (w/v) bovine serum albumine (BSA), 0.005% (v/v) Trition X-100 (Sigma), 1× Complete EDTA-free protease inhibitor mixture (Roche)] were added to the compounds in the test plate and the mixture was incubated for 15 min at 22° C. to allow pre-equilibration of the putative enzyme-inhibitor complexes before the start of the kinase reaction, which was initiated by the addition of 3 μL 1.67-fold concentrated solution (in assay buffer) of adenosine-tri-phosphate (ATP, 10 μM final concentration) and peptide substrate (1 μM final concentration). The resulting mixture (5 μL final volume) was incubated at 22° C. during 60 min., and the reaction was stopped by the addition of 5 μL of an aqueous EDTA-solution (50 mM EDTA, in 100 mM HEPES pH 7.5 and 0.2% (w/v) bovine serum albumin) which also contained the TR-FRET detection reagents (0.2 μM streptavidin-XL665 [Cisbio Bioassays, Codolet, France] and 1 nM anti-phosho-Serine antibody [Merck Millipore, cat. #35-001] and 0.4 nM LANCE EU-W1024 labeled anti-mouse IgG antibody [Perkin-Elmer, product no. AD0077, alternatively a Terbium-cryptate-labeled anti-mouse IgG antibody from Cisbio Bioassays can be used]). The stopped reaction mixture was further incubated 1 h at 22° C. in order to allow the formation of complexes between peptides and detection reagents. Subsequently, the amount of product was evaluated by measurement of the resonance energy transfer from the Eu-chelate-antibody complex recognizing the Phosphoserine residue to the streptavidin-XL665 bound to the biotin moiety of the peptide. To this end, the fluorescence emissions at 620 nm and 665 nm after excitation at 330-350 nm were measured in a TR-FRET plate reader, e.g. a Rubystar or Pherastar (both from BMG Labtechnologies, Offenburg, Germany) or a Viewlux (Perkin-Elmer) and the ratio of the emissions (665 nm/622 nm) was taken as indicator for the amount of phosphorylated substrate. The data were normalised using two sets of (typically 32-) control wells for high- (=enzyme reaction without inhibitor=0%=Minimum inhibition) and low- (=all assay components without enzyme=100%=Maximum inhibition) Bub1 activity. […] values were calculated by fitting the normalized inhibition data to a 4-parameter logistic equation (Minimum, Maximum, IC50, Hill; Y=Max+(Min−Max)/(1+(X/IC50)Hill)).

[2] = tested on: HeLa human cervical cancer cell line; test: Proliferation assay (HeLa cell line), crystal violet staining; assay type: cell-based; details: 96 h, HeLa cells, 4 days incubation, read-out: Biological Assay 2: Proliferation assay (HeLa cell line) median IC50
Procedure: Cultivated tumor cells (cells were ordered from ATCC) were plated at a density of 3000 cells/well in a 96-well multititer plate in 200 μL of growth medium supplemented 10% fetal calf serum. After 24 hours, the cells of one plate (zero-point plate) were stained with crystal violet (see below), while the medium of the other plates was replaced by fresh culture medium (200 μL), to which the test substances were added in various concentrations (0 μM, as well as in the range of 0.001-10 μM; the final concentration of the solvent dimethyl sulfoxide was 0.5%). The cells were incubated for 4 days in the presence of test substances. Cell proliferation was determined by staining the cells with crystal violet: the cells were fixed by adding 20 μL/measuring point of an 11% glutaric aldehyde solution for 15 minutes at room temperature. After three washing cycles of the fixed cells with water, the plates were dried at room temperature. The cells were stained by adding 100 μL/measuring point of a 0.1% crystal violet solution (pH 3.0). After three washing cycles of the stained cells with water, the plates were dried at room temperature. The dye was dissolved by adding 100 μL/measuring point of a 10% acetic acid solution. Absorbtion was determined by photometry at a wavelength of 595 nm. The change of cell number, in percent, was calculated by normalization of the measured values to the absorbtion values of the zero-point plate (=0%) and the absorbtion of the untreated (0 μm) cells (=100%). The IC50 values were determined by means of a 4 parameter fit.

SMILES | IC50 [1] [nM] | IC50 [2] [µM]
CCOc1cc(F)c(Cn2nc(-c3cc(Nc4ccncn4)n(C(C)=O)n3)c(C)c2C2CC2)c(F)c1 [Example 2-1-2, 1-[5′-cyclopropyl-1′-(4-ethoxy-2,6-difluorobenzyl)-4′-methyl-5-(pyrimidin-4-ylamino)-1H,1′H-3,3′-bipyrazol-1-yl]ethanone] | ≥ 20000 | > 10
CCOc1cc(F)c(Cn2nc(-c3nc(Nc4ccncc4)nn3CCOC)c3ccccc32)c(F)c1 [Example 2-5-2, N-{5-[1-(4-ethoxy-2,6-difluorobenzyl)-1H-indazol-3-yl]-1-(2-methoxyethyl)-1H-1,2,4-triazol-3-yl}pyridin-4-amine] | 600 | 
CCOc1cc(F)c(Cn2nc(-c3nc(Nc4ccncc4)n(CCOC)n3)c3ccccc32)c(F)c1 [Example 2-5-1, N-{3-[1-(4-ethoxy-2,6-difluorobenzyl)-1H-indazol-3-yl]-1-(2-methoxyethyl)-1H-1,2,4-triazol-5-yl}pyridin-4-amine] | 13 | 
CCOc1cc(F)c(Cn2nc(-c3cc(Nc4ccncn4)n(CC(=O)O)n3)c(C)c2C2CC2)c(F)c1 [Example 2-1-3, [5′-cyclopropyl-1′-(4-ethoxy-2,6-difluorobenzyl)-4′-methyl-5-(pyrimidin-4-ylamino)-1H,1′H-3,3′-bipyrazol-1-yl]acetic acid] | 1100 | > 10
CCOc1cc(F)c(Cn2nc(-c3cc(Nc4ccncn4)n(CCS(C)(=O)=O)n3)c(C)c2C2CC2)c(F)c1 [Example 2-2-1, 5′-cyclopropyl-1′-(4-ethoxy-2,6-difluorobenzyl)-4′-methyl-1-[2-(methylsulfonyl)ethyl]-N-(pyrimidin-4-yl)-1H,1′H-3,3′-bipyrazol-5-amine] | ≥ 20000 | 
CCOc1cc(F)c(Cn2nc(-c3cc(Nc4ccncn4)n(CCN4CCOCC4)n3)c(C)c2C2CC2)c(F)c1 [Example 2-1-1, 5′-cyclopropyl-1′-(4-ethoxy-2,6-difluorobenzyl)-4′-methyl-1-[2-(morpholin-4-yl)ethyl]-N-(pyrimidin-4-yl)-1H,1′H-3,3′-bipyrazol-5-amine] | 680 | 
CCOC(=O)c1cnccc1Nc1nc(-c2nn(Cc3c(F)cc(OCC)cc3F)c(C3CC3)c2C)nn1CCOC [Example 2-4-1, ethyl 4-({3-[5-cyclopropyl-1-(4-ethoxy-2,6-difluorobenzyl)-4-methyl-1H-pyrazol-3-yl]-1-(2-methoxyethyl)-1H-1,2,4-triazol-5-yl}amino)nicotinate] | 91 | 
CCOc1cc(F)c(Cn2nc(-n3cc(Nc4ccncn4)cn3)c3ccccc32)c(F)c1 [Example 2-6-1, N-{1-[1-(4-ethoxy-2,6-difluorobenzyl)-1H-indazol-3-yl]-1H-pyrazol-4-yl}pyrimidin-4-amine] | 26 | > 10
Fc1ccccc1Cn1nc(-c2nsc(Nc3ccncc3)n2)c2ccccc21 [Example 2-7-1, N-{3-[1-(2-fluorobenzyl)-1H-indazol-3-yl]-1,2,4-thiadiazol-5-yl}-pyridin-4-amine] | 2200 | 9.1

Other lines, results leading:

IC50 [1] [nM] | IC50 [2] [µM] | SMILES
22 | > 10 | CCOc1cc(F)c(Cn2nc(-c3nc(Nc4ccncc4)n(CCO)n3)c(C)c2C2CC2)c(F)c1 [Example 2-3-3, 2-{3-[5-cyclopropyl-1-(4-ethoxy-2,6-difluorobenzyl)-4-methyl-1H-pyrazol-3-yl]-5-(pyridin-4-ylamino)-1H-1,2,4-triazol-1-yl}ethanol]
12 | > 10 | CCOc1cc(F)c(Cn2nc(-c3nc(Nc4ccncc4)n(CCOC)n3)c(C)c2C2CC2)c(F)c1 [Example 2-3-2, N-{3-[5-cyclopropyl-1-(4-ethoxy-2,6-difluorobenzyl)-4-methyl-1H-pyrazol-3-yl]-1-(2-methoxyethyl)-1H-1,2,4-triazol-5-yl}pyridin-4-amine]
390 | 3.5 | CCOc1cc(F)c(Cn2nc(-c3cc(Nc4ccncc4)n(C)n3)c(C)c2C2CC2)c(F)c1 [Example 2-3-1, 5′-cyclopropyl-1′-(4-ethoxy-2,6-difluorobenzyl)-1,4′-dimethyl-N-(pyridin-4-yl)-1H,1′H-3,3′-bipyrazol-5-amine]
82 |  | CCOc1cc(F)c(Cn2nc(-c3n[nH]c(Nc4ccncc4)n3)c(C)c2C2CC2)c(F)c1 [Example 2-3-4, N-{3-[5-cyclopropyl-1-(4-ethoxy-2,6-difluorobenzyl)-4-methyl-1H-pyrazol-3-yl]-1H-1,2,4-triazol-5-yl}pyridin-4-amine]
34 |  | CCOc1cc(F)c(Cn2nc(-c3cc(Nc4ccncn4)n(C)n3)c(C)c2C2CC2)c(F)c1 [Example 2-1-4, 5′-cyclopropyl-1′-(4-ethoxy-2,6-difluorobenzyl)-1,4′-dimethyl-N-(pyrimidin-4-yl)-1H,1′H-3,3′-bipyrazol-5-amine]
